# From patent US20250228775A1, “ETHANOLIC RESINIFERATOXIN CONCENTRATE” (Gruenenthal GmbH, priority 2024, published 2025)
# How the values were obtained:
# [1] = system: chronic osteoarthritic knee joint pain; test: Randomized, double-blind, placebo-controlled, single-dose trial of intraarticular Resiniferatoxin (Example 3); assay type: in vivo, human; conditions: for subjects with severe adverse events: none considered related to investigational medicinal product or Ropivacaine
# Protocol: The primary objective of this study was to compare the analgesic effects of single intraarticular injections of Resiniferatoxin (100 or 400 ng) compared to placebo, at 3 and 6 months postinjection, in participants with chronic osteoarthritic knee joint pain. Secondary objectives were to evaluate the analgesic effects of Resiniferatoxin versus placebo in terms of a responder analysis (percentage of subjects achieving ≥50% or ≥70% reduction in visual analog scale pain score) and changes in Western Ontario and McMaster Universities Arthritis Index (WOMAC) total and subscale scores (pain, physical function and stiffness). Safety and injection site pain were also evaluated.
# The study was conducted as a randomized, double-blind, placebo-controlled, single-dose trial of Resiniferatoxin. Eligible patients were aged 40 to 80 years with radiographic knee osteoarthritis (Kellgren-Lawrence Grade 2-4 in the last 3 years) and a baseline visual analog scale (0-100 mm) pain score ≥40 mm on motion in the target knee, with or without pain medication. 67 subjects were randomized to treatment with either Resiniferatoxin 100 ng (n=24) or 400 ng (n=23), or placebo (n=20), administered intraarticularly into the index knee. Intraarticular Ropivacaine (5 ml, 0.5%) was administered 15 mins before investigational medicinal product. Visual analog scale scores were used to evaluate pain on motion as the average of the last 2 days in a target knee between baseline and at 3 and 6 months post injection. Injection site pain was rated (visual analog scale) from baseline (−0.5 h) up to 3 h post intraarticular injections.
# [2] = system: moderate to severe pain due to osteoarthritis of the knee; conditions: one-time intraarticular dose 5 to 30 μg; cited from earlier work
# [3] = single intraarticular dose 100 ng or 400 ng
smiles,measurement,setting,value
"C=C(C)[C@]12C[C@@H](C)[C@@]34O[C@](Cc5ccccc5)(O[C@@H]1[C@@H]3C=C(COC(=O)Cc1ccc(O)c(OC)c1)C[C@]1(O)C(=O)C(C)=C[C@@H]41)O2 [Resiniferatoxin, 4-hydroxy-3-methoxy-benzeneacetic acid, [(2S,3aR,3bS,6aR,9aR,9bR, 10R,11aR)-3a,3b,6,6a,9a,10,11,11a-octahydro-6a-hydroxy-8,10-dimethyl-11a-(1-methylethenyl)-7-oxo-2-(phenylmethyl)-7H-2,9b-epoxyazuleno[5,4-e]-1,3-benzodioxol-5-yl]methyl ester]","reduction in WOMAC total and subscale scores (pain, physical function and stiffness) compared to placebo","[1]; 100 ng and 400 ng, at both 3 and 6 months",greater reduction in WOMAC total and subscale scores
same,subjects with severe adverse events,[1]; 100 ng group (n=24),2 subjects
same,pain reduction (VAS pain on motion) compared to placebo,[1]; 100 ng or 400 ng intraarticular,greater pain reduction than subjects receiving placebo
same,injection site pain (procedural pain) compared to placebo,"[1]; 100 ng or 400 ng intraarticular, VAS up to 3 h post injection",generally higher
same,subjects with severe adverse events,[1]; 400 ng group (n=23),3 subjects
same,first visit at which reduction in VAS pain on motion was observed,"[1]; intention-to-treat population, first trial visit post-injection",≤ 8 days
same,last visit until which reduction in VAS pain on motion lasted,"[1]; intention-to-treat population, last trial visit",≥ 6 month
same,time of return of injection site pain to baseline,[1]; post-injection,≤ 3 h
same,analgesic onset,[1]; [3],within one week of administration
same,duration of analgesia during follow-up,[1]; [3],at least 3 months
same,safety and tolerability,[1]; [3],good safety profile and to have been well tolerated
same,efficacy,[2],Preliminary efficacy was also observed
